From US20240398845A1, “USE OF SGLT-2 INHIBITORS FOR THE PREVENTION AND/OR TREATMENT OF CARDIAC DISEASES IN NON-HUMAN MAMMALS EXCLUDING FELINES, IN PARTICULAR CANINES” (BOEHRINGER INGELHEIM VETMEDICA GMBH, priority 2021, published 2024)

System: laboratory animals diagnosed with mitral-valve disease (ACVIM stage B2 and C)
Assay: Exploratory laboratory trial "MVD" - outline
Format: in vivo, dog
Details: dogs with mitral-valve disease stage B2 and C; velagliflozin 0.3 mg/kg bodyweight orally once daily; example headed Outline
Method: Laboratory animals (older than 1 year) diagnosed with mitral-valve disease via physical and echocardiography (according to ACVIM guidelines—stage B2 and C) are treated orally and once daily with a velagliflozin dosage of 0.3 mg/kg bodyweight. During the study period the body weight, body condition score, blood pressure and the cardiovascular system are examined on a regular basis during the visits at the site by the investigator. Additionally, thoracic radiographs (in the right lateral and dorso ventral view), echocardiography (IVSd, LA diameter, Ao diameter, LVIDd, LVWd, LVWs, IVSd, LVPWd, EDV, ESV, EF, % FS, presence of effusion) and electrocardiography are performed. In order to obtain an overview as complete as possible regular blood tests include a complete hematology (white blood cells (WBC), WBC differential, red blood cells, hemoglobin, hematocrit, Heinz bodies, platelet count), a biochemistry panel (total protein, Albumin, Globulin, Alkaline phosphatase (ALP), Alanine transaminase (ALT), Aspartate transaminase (AST), Total bilirubin, Creatinine, Blood urea nitrogen or urea (BUN), Calcium, Sodium, Potassium, Chloride, Phosphorus, Glucose, Cholesterol, Triglycerides, Fructosamine), the measurement of total T4, ketone bodies and cardiac biomarkers (Plasma NT-pro BNP, Cardiac troponin I). […]

N#Cc1ccc([C@@H]2O[C@H](CO)[C@@H](O)[C@H](O)[C@H]2O)cc1Cc1ccc(C2CC2)cc1 [velagliflozin, Velagliflozin]
clinical parameters (e.g. appetite, activity level and breathing): improve significantly | survival time and time to event (death or hospitalization for heart failure, pulmonary oedema): clinically relevant prolongation
